Measured values as given in patent US7056947B2, “Aza-peptide epoxides” (Georgia Tech Research Corp., priority 2002, dated 2006).

Legend:
[1] = target: T1, schistosome legumain SmAE (Schistosoma mansoni asparaginyl endopeptidase) (Schistosoma mansoni, UniProt P09841, N192C, form not given); assay: Schistosome legumain (SmAE) IC50 assay; type: biochemical; details: read-out: Schistosome Legumain IC50; preincubated 20 minutes at room temperature, substrate Cbz-Ala-Ala-Asn-AMC; NI = no inhibition
T1 sequence (P09841 1-429 N192C): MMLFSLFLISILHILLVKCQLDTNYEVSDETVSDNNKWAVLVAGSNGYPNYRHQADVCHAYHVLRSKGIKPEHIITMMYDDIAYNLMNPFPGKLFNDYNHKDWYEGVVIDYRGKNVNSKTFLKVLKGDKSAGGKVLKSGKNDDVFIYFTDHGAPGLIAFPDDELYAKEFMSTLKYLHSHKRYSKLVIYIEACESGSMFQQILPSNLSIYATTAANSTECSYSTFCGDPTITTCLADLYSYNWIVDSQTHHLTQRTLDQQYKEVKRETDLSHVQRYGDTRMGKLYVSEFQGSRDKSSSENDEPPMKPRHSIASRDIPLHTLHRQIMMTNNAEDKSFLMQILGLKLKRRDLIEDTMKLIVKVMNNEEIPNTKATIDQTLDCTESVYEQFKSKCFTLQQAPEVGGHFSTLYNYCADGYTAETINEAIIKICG
Procedure: Studies with the aza-peptide epoxides using the schistosome legumain SmAE (Schistosoma mansoni asparaginyl endopeptidase) were also performed. The enzymatically pure enzyme (zymogen form) was expressed in Pichia without interference from other proteases (ref FEBS lett 2000 466 244–248 Caffrey). The actual active site enzyme concentration is unknown. The lyophilized enzyme (50–100 mg) was reconstituted in 1.5 mL 0.5 M sodium acetate, pH 4.5 containing 4 mM DTT, and left to stand at 37° C. for 3–4 hours to allow for auto-activation of the zymogen. In a black 96-well microtiter plate, 50 uL of activated enzyme was added to an equal volume of 0.1 M citrate-phosphate buffer pH 6.8 containing 4 mM DTT. Inhibitor stock solutions (20 mM) were prepared in DMSO. Serial dilutions (using water) of inhibitor were added (as 1 uL aliquots) to yield concentrations of between 2 and 0.00002 uM inhibitor. The inhibitors were preincubated with the protease at room temperature for 20 minutes before the assay (IC50s were the same when incubated for only 5 minutes). After incubating various inhibitor concentrations with enzyme, 100 uL of the same buffer containing 20 uM substrate (Cbz-Ala-Ala-Asn-AMC) was added to the wells and the reaction monitored at room temperature with linear kinetics up to 20 minutes. Inhibitors are tested in duplicate. A plot of the RFU/min versus the inhibitor concentration [μM] permitted calculation of an IC50 value and estimation of the kobs/[I].

HIV-1 protease = HIV-1 protease (Human immunodeficiency virus type 1 group M subtype B, UniProt P04585); assay: Aspartyl protease assay, HIV-1 protease; type: biochemical; details: preincubated 30 minutes
Procedure: (§1) Aspartyl Proteases. Assays with the following aspartyl proteases were performed: porcine pepsin, human cathepsin D, plasmepsin 2 (from P. falciparum), and the secreted aspartic proteinase 2 (SAP-2) from Candida albicans. The inhibitors were also assayed with HIV-1 protease. The inhibitors were preincubated for 30 minutes with HIV-1 protease and 20 minutes with the other enzymes. Substrate was then added and the substrate hydrolysis was monitored.

papain [2] = target: T2, papain (Carica papaya, UniProt P00784); assay: Inhibition of papain, incubation method; type: biochemical; details: pH 7.5; second-order rate constant; NI = no inhibition; read-out: kobs/[I] papain
T2 sequence (P00784 134-345): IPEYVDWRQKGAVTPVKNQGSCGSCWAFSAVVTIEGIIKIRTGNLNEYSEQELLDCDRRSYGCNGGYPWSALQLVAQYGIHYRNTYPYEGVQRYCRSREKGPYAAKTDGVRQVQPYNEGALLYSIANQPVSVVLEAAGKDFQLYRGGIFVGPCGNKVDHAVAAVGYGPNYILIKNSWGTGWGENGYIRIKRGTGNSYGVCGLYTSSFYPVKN
Method in brief: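 Papain (~0.29 mg/mL) incubated with inhibitor in 50 mM Hepes pH 7.5, 2.5 mM DTT, 2.5 mM EDTA; residual activity read on Z-Phe-Arg-pNA (53.7 μM) by p-nitroanilide release at 405 nm. Pseudo-first-order inactivation constants from ln vt/vo versus time.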

granzyme B = granzyme B (Homo sapiens, UniProt P10144); assay: Granzyme B assay; type: biochemical; details: preliminary assays, inhibitor 5 mM stock incubated 1 hour, substrate IETD-pNA
Procedure: Granzyme B. Assays with granzyme B were also performed. In the preliminary assays, the inhibitor (10 μL, 5 mM stock solution in DMSO) was incubated with granzyme B (90 μL) for 1 hour. After the incubation period, to these wells was added IETD-pNA (100 μL) and the rate was monitored at 405 nm.

cathepsin B [3] = target: T3, cathepsin B (Homo sapiens, UniProt P07858); assay: Inhibition of cathepsin B, incubation method; type: biochemical; details: pH 6; second-order rate constant; NI = no inhibition; read-out: kobs/[I] cathepsin B
Text: The release of 7-amino-4-methylcoumarin was monitored (λex=360 nm, λem=465 nm) using a Tecan Spectra Fluor microplate reader. Pseudo first-order inactivation rate constants were obtained from plots of In vt/vo versus time.

human cathepsin D = human cathepsin D (Homo sapiens, UniProt P07339); assay: Aspartyl protease assay, cathepsin D; type: biochemical; details: preincubated 20 minutes, pH 3.5
Procedure: as §1

[4] = target: secreted aspartic proteinase 2 (SAP-2) (Candida albicans, UniProt P0DJ06); assay: Aspartyl protease assay, SAP-2; type: biochemical; details: preincubated 20 minutes, pH 4.5
Procedure: as §1

plasmepsin 2 = plasmepsin 2 (Plasmodium falciparum, UniProt P46925); assay: Aspartyl protease assay, plasmepsin 2; type: biochemical; details: preincubated 20 minutes, pH 4.5
Procedure: as §1

porcine pepsin = porcine pepsin (Sus scrofa, UniProt P00791); assay: Aspartyl protease assay, pepsin; type: biochemical; details: preincubated 20 minutes, pH 3.5
Procedure: as §1

DPPI = DPPI (Homo sapiens, UniProt P53634); details: E-64; cited from earlier work
caspase 1 (ICE) = caspase 1 (ICE) (Homo sapiens, UniProt P29466); details: E-64; cited from earlier work
ficin = details: E-64; cited from earlier work
clostripain = clostripain (Hathewaya histolytica, UniProt P09870); details: E-64; cited from earlier work
cathepsin X = cathepsin X (Homo sapiens, UniProt Q9UBR2); details: E-64; cited from earlier work
cathepsin O = details: E-64; cited from earlier work
stem bromelain = stem bromelain (Ananas comosus, UniProt P14518); details: E-64; cited from earlier work
papaya proteinase IV = papaya proteinase IV (Carica papaya, UniProt P05994); details: E-64; cited from earlier work
cathepsin F = cathepsin F (Homo sapiens, UniProt Q9UBX1); details: E-64, rate not given; cited from earlier work
collagenase = details: E-64; cited from earlier work
pepsin = pepsin (Homo sapiens, UniProt P0DJD8); details: E-64; cited from earlier work
cathepsin L = cathepsin L (Homo sapiens, UniProt P07711); details: E-64; cited from earlier work
cathepsin K = cathepsin K (Homo sapiens, UniProt P43235); details: E-64; cited from earlier work
trypsin = target: T4, trypsin (Bos taurus, UniProt P00760); details: E-64; cited from earlier work
T4 construct: gene PRSS1

vignain = vignain (Vigna mungo, UniProt P12412); details: E-64; cited from earlier work
kallikrein = details: E-64; cited from earlier work
mold acid protease = details: E-64; cited from earlier work
fruit bromelain = fruit bromelain (Ananas comosus, UniProt O23791); details: E-64; cited from earlier work
bleomycin hydrolase = bleomycin hydrolase (Homo sapiens, UniProt Q13867); details: E-64; cited from earlier work
cathepsin B [5] = target: T3, cathepsin B; details: E-64; cited from earlier work
cathepsin V = cathepsin V (Homo sapiens, UniProt O60911); details: E-64; cited from earlier work
cathepsin J = details: E-64, rate not given; cited from earlier work
cathepsin H = cathepsin H (Homo sapiens, UniProt P09668); details: E-64; cited from earlier work
plasmin = plasmin (Homo sapiens, UniProt P00747); details: E-64; cited from earlier work
LDH = details: E-64; cited from earlier work
α-chymotrypsin = α-chymotrypsin (Bos taurus, UniProt P00766); details: E-64; cited from earlier work
thermolysin = thermolysin (Bacillus thermoproteolyticus, UniProt P00800); details: E-64; cited from earlier work
elastase = details: E-64; cited from earlier work
calpain II = calpain II (Homo sapiens, UniProt P17655); details: E-64; cited from earlier work
cathepsin S = cathepsin S (Homo sapiens, UniProt P25774); details: E-64; cited from earlier work
cruzain = cruzain (Trypanosoma cruzi, UniProt P25779); details: E-64; cited from earlier work
papain [6] = target: T2, papain; details: E-64; cited from earlier work
streptococcal proteinase = streptococcal proteinase (Streptococcus pyogenes, UniProt P0C0J0); details: cited from earlier work
legumain = legumain (Homo sapiens, UniProt Q99538); details: E-64; cited from earlier work
legumain, sequence (Q99538 18-323, species assumed): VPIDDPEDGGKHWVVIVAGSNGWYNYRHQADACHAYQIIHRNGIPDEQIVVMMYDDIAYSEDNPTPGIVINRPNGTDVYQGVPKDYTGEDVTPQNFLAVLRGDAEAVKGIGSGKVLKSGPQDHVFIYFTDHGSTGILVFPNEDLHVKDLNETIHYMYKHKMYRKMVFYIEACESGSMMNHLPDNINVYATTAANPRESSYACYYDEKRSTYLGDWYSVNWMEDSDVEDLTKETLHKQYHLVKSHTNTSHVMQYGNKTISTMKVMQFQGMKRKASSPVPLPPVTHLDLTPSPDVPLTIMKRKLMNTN

cathepsin L, sequence (P07711 114-333, species assumed): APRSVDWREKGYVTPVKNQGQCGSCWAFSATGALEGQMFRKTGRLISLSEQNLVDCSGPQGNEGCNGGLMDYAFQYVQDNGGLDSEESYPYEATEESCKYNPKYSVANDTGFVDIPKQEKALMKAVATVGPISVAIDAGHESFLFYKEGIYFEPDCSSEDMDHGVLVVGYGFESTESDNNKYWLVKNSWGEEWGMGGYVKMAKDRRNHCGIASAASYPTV
cathepsin V, sequence (O60911 114-334, species assumed): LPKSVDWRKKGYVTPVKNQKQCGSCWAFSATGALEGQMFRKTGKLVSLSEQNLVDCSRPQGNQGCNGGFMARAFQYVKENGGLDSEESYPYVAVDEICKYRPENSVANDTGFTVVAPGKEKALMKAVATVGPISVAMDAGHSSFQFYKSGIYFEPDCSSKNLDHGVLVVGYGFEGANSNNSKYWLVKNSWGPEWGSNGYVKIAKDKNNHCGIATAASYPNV
fruit bromelain, sequence (O23791 122-351): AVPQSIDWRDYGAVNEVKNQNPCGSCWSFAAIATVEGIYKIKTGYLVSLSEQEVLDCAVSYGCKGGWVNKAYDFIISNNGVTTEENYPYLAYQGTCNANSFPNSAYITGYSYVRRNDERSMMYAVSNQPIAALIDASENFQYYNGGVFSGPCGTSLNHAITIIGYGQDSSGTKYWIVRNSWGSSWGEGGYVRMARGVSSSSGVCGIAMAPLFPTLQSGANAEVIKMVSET
plasmin, sequence (P00747 97-810, species assumed): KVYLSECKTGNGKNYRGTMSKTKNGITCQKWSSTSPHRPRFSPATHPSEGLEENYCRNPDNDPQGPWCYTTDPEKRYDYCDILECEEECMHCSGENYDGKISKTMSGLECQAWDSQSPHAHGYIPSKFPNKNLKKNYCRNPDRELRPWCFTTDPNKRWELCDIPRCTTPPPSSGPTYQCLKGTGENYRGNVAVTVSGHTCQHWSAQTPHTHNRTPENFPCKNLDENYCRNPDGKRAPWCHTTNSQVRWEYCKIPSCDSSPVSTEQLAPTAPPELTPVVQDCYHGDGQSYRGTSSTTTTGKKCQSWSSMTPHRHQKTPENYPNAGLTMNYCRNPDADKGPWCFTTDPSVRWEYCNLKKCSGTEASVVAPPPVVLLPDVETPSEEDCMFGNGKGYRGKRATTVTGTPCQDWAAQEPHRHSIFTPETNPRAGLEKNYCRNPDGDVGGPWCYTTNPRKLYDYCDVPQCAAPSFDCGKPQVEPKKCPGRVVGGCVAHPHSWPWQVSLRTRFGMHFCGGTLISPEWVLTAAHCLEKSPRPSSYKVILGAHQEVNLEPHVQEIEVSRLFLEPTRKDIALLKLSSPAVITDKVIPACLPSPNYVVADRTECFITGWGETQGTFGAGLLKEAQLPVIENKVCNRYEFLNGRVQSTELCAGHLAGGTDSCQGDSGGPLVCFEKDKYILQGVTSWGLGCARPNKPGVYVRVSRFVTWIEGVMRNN
papaya proteinase IV, sequence (P05994 133-348): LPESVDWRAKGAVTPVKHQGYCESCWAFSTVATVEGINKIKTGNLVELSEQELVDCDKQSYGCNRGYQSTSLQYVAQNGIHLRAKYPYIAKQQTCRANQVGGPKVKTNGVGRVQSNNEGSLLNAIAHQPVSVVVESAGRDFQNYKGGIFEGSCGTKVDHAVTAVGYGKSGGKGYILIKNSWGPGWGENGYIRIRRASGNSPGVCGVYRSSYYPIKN
cathepsin K, sequence (P43235 115-329, species assumed): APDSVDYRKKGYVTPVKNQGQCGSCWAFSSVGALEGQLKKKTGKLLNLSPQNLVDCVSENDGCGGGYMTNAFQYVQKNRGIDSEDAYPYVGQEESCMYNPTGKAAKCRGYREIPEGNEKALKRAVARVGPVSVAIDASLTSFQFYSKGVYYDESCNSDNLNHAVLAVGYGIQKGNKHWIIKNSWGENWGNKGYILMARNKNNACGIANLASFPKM
plasmepsin 2, sequence (P46925 125-453): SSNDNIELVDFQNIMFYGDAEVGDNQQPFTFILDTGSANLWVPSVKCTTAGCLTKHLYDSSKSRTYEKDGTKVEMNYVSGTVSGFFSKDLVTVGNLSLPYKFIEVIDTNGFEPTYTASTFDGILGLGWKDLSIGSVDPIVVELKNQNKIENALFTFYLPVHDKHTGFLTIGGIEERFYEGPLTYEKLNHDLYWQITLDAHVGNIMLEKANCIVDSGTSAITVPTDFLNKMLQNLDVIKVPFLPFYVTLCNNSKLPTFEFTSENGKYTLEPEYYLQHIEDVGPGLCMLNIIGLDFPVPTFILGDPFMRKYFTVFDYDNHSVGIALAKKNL
stem bromelain, sequence (P14518 whole entry): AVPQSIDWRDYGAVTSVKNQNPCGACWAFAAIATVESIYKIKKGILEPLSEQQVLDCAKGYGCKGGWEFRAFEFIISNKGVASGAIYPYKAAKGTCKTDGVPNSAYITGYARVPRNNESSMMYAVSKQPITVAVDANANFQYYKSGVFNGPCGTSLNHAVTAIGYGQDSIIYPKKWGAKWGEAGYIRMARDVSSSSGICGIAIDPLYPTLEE
human cathepsin D, sequence (P07339 65-412): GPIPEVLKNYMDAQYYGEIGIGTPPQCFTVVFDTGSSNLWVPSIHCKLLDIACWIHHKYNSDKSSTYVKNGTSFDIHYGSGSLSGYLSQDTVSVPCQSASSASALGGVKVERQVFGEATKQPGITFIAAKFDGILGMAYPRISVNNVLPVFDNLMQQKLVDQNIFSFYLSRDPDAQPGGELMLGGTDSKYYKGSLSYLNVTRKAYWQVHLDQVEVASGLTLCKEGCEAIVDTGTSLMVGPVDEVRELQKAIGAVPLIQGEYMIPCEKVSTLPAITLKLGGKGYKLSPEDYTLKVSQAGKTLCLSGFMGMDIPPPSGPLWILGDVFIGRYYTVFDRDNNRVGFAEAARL
DPPI, sequence (P53634 25-463, species assumed): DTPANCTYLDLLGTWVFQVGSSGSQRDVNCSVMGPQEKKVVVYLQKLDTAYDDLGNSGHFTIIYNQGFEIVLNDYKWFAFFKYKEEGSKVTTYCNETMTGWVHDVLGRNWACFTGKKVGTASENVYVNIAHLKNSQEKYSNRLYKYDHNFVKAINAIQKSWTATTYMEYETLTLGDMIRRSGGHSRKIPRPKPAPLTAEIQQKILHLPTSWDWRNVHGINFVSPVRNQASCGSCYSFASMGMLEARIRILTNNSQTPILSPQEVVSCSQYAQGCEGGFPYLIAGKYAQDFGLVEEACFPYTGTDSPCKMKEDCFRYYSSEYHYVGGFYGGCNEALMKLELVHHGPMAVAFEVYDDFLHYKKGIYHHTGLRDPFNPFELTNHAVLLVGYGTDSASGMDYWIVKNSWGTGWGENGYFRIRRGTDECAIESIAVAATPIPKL
streptococcal proteinase, sequence (P0C0J0 146-398 limits assumed): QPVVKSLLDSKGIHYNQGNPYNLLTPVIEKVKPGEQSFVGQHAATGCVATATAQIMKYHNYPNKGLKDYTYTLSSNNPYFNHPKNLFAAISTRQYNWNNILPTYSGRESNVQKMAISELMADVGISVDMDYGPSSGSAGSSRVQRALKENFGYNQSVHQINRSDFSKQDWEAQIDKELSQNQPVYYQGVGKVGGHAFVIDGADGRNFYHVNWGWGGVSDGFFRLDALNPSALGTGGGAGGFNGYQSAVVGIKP
clostripain, sequence (P09870 51-526): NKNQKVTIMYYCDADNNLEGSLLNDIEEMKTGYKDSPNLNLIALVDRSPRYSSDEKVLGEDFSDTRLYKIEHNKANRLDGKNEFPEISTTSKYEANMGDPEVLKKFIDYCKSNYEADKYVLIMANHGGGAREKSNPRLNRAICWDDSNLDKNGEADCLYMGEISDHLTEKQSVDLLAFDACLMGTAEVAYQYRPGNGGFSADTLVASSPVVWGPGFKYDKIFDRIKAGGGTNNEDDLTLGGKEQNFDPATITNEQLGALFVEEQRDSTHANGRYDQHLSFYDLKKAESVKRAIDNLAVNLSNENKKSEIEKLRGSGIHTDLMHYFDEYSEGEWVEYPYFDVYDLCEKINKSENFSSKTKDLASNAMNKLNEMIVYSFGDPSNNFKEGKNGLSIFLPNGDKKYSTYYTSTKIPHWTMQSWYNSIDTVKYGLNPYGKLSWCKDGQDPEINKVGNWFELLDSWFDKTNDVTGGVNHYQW
cathepsin X, sequence (Q9UBR2 62-303): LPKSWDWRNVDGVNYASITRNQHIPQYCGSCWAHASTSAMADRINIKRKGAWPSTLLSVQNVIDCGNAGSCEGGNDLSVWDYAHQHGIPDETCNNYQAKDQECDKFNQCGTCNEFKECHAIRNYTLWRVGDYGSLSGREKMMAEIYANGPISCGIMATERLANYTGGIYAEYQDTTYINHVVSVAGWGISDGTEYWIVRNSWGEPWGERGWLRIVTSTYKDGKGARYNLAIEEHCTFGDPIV
cruzain, sequence (P25779 123-467): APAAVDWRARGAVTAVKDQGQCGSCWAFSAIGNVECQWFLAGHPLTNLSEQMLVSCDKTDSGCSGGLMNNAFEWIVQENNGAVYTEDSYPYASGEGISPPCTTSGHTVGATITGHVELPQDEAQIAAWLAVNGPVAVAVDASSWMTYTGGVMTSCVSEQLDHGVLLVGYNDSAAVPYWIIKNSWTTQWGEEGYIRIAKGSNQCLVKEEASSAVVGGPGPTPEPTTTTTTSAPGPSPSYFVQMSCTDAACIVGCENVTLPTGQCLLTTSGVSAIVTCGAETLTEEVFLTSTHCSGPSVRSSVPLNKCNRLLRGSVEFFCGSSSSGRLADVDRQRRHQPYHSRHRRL

For CC(NC(=O)[C@@H]1O[C@H]1C(=O)N(CC(N)=O)NC(=O)[C@H](C)NC(=O)[C@H](C)NC(=O)OCc1ccccc1)C(=O)NCc1ccccc1 (stereo partly drawn) [12f, (2R,3R)-2-(1-Benzylcarbamoylethylcarbamoyl)-3-(N^2-(N-benzyloxycarbonylalanylalanyl)-N^1-carbamoylmethylhydrazinocarbonyl)oxirane], the IC50 [1] was greater than 2000 nM.

With CCOC(=O)[C@H]1O[C@@H]1C(=O)N(CC(N)=O)NC(=O)[C@H](C)NC(=O)[C@H](C)NC(=O)OCc1ccccc1 [Cbz-Ala-Ala-AAsn-(2S, 3S)-EP-COOEt, (2S,3S)-3-(N^2-(N-Benzyloxycarbonylalanylalanyl)-N^1-carbamoylmethylhydrazinocarbonyl)oxirane-2-carboxylic Acid Ethyl Ester] the “inhibition of HIV-1 protease” value (HIV-1 protease) was “less than 20%”, the kinact/KI (papain [2]) was 4 M⁻¹ s⁻¹ and the “inhibition of granzyme B” value (granzyme B) was “no inhibition”. The kinact/KI (cathepsin B [3]) was 6 M⁻¹ s⁻¹, the “inhibition of human cathepsin D” value (human cathepsin D) was “less than 20%” and the “inhibition of SAP-2” value [4] was “less than 20%”. For the same compound, the “inhibition of plasmepsin 2” value (plasmepsin 2) was “less than 20%” and the “inhibition of porcine pepsin” value (porcine pepsin) was “less than 20%”.

For CC(NC(=O)OCc1ccccc1)C(=O)NC(C)C(=O)NN(CC(N)=O)C(=O)C1OC1C(=O)NCCc1ccccc1 [12e, (2S,3S)-2-(2-Phenethylcarbamoyl)-3-(N^2-(N -benzyloxycarbonylalanylalanyl)-N^1-carbamoylmethylhydrazinocarbonyl)oxirane], the IC50 [1] was greater than 2000 nM.

For CC(NC(=O)OCc1ccccc1)C(=O)NC(C)C(=O)NN(CC(N)=O)C(=O)C1OC1C(=O)NCc1ccccc1 [12d, (2S,3S)-2-(2-Benzylcarbamoyl)-3-(N^2-(N-benzyloxycarbonylalanylalanyl)-N^1-carbamoylmethylhydrazinocarbonyl)oxirane], the IC50 [1] was greater than 2000 nM.

For CC(C)C[C@H](NC(=O)[C@H]1O[C@@H]1C(=O)O)C(=O)NCCCCNC(=N)N [E-64, N-(N-(L-3-trans-carboxyoxiran-2-carbonyl)-L-leucyl)agmatine], the “rate, DPPI” value (DPPI) is listed as 100 M⁻¹ s⁻¹, the “enzymes not inactivated: caspase 1 (ICE)” value (caspase 1 (ICE)) is listed as “caspase 1 (ICE)” and the “ID50, ficin” value (ficin) is listed as 0.084 (ID50). For the same compound, the “enzymes not inactivated: clostripain” value (clostripain) was “clostripain”, the “rate, cathepsin X” value (cathepsin X) was 775 M⁻¹ s⁻¹ and the IC50 (cathepsin O) was greater than 100 µM. For the same compound, the “ID50, stem bromelain” value (stem bromelain) was 0.025 (ID50), the “rate, papaya proteinase IV” value (papaya proteinase IV) was 58,000 M^−1 s^−1 and the “enzymes inactivated: cathepsin F” value (cathepsin F) was “cathepsin F”. For the same compound, the “enzymes not inactivated: collagenase” value (collagenase) was “collagenase”, the “enzymes not inactivated: pepsin” value (pepsin) was “pepsin” and the “rate, cathepsin L” value (cathepsin L) was 96,250 M^−1 s^−1. The Ki (cathepsin K) was 1.8 nM, the “enzymes not inactivated: trypsin” value (trypsin) was “trypsin” and the “rate, vignain” value (vignain) was 32,500 M^−1 s^−1. For the same compound, the “enzymes not inactivated: kallikrein” value (kallikrein) was “kallikrein”, the “enzymes not inactivated: mold acid protease” value (mold acid protease) was “mold acid protease” and the “ID50, fruit bromelain” value (fruit bromelain) was 0.110 (ID50). The IC50 (bleomycin hydrolase) was greater than 160 µM, the “rate, cathepsin B” value (cathepsin B [5]) was 89,400 M^−1 s^−1 and the IC50 (cathepsin V) was greater than 100 nM. The “enzymes inactivated: cathepsin J” value (cathepsin J) was “cathepsin J”, the “rate, cathepsin H” value (cathepsin H) was 4,000 M^−1 s^−1 and the “enzymes not inactivated: plasmin” value (plasmin) was “plasmin”. The “enzymes not inactivated: LDH” value (LDH) was “LDH”, the “enzymes not inactivated: α-chymotrypsin” value (α-chymotrypsin) was “α-chymotrypsin” and the “enzymes not inactivated: thermolysin” value (thermolysin) was “thermolysin”. For the same compound, the “enzymes not inactivated: elastase” value (elastase) was “elastase”, the “rate, calpain II” value (calpain II) was 7,500 M^−1 s^−1 and the “rate, cathepsin S” value (cathepsin S) was 99,000 M^−1 s^−1. The “rate, cruzain” value (cruzain) was 70,600 M^−1 s^−1, the “ID50, papain” value (papain [6]) was 0.104 (ID50) and the “rate, streptococcal proteinase” value (streptococcal proteinase) was 624 M⁻¹ s⁻¹. For the same compound, the “enzymes not inactivated: legumain” value (legumain) was “legumain”.
